ChEMBL document CHEMBL1149372, “Discovery of novel and potent thiazoloquinazolines as selective Aurora A and B kinase inhibitors” (J Med Chem, 2006)
In brackets after ≈: the same amount, converted by molar mass.

Tests used:
SW-620 [1] = assay: Inhibition of phosphorylation of histone H3 in human SW620 cells; type: functional, cell-based
Aurora kinase A = target: T1, Aurora kinase A (Homo sapiens, UniProt O14965)
T1 sequence (O14965 whole entry): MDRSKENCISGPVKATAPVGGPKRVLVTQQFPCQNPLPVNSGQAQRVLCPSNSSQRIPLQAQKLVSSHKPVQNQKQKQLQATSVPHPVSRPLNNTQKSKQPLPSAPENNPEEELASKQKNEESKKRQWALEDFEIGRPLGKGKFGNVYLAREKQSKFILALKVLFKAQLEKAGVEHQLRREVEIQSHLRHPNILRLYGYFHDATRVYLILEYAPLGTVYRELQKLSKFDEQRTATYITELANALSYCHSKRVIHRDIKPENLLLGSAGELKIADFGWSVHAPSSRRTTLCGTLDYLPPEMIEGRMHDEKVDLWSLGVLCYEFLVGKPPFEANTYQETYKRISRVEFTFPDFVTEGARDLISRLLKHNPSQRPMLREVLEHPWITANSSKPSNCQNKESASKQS
Description: Inhibition of Aurora A kinase activity

[2] = Inhibition of Aurora B-INCENP complex activity
[3] = target: T2, Tyrosine-protein kinase JAK3 (Homo sapiens, UniProt P52333); assay: Inhibitory activity against JAK3
T2 sequence (P52333 whole entry): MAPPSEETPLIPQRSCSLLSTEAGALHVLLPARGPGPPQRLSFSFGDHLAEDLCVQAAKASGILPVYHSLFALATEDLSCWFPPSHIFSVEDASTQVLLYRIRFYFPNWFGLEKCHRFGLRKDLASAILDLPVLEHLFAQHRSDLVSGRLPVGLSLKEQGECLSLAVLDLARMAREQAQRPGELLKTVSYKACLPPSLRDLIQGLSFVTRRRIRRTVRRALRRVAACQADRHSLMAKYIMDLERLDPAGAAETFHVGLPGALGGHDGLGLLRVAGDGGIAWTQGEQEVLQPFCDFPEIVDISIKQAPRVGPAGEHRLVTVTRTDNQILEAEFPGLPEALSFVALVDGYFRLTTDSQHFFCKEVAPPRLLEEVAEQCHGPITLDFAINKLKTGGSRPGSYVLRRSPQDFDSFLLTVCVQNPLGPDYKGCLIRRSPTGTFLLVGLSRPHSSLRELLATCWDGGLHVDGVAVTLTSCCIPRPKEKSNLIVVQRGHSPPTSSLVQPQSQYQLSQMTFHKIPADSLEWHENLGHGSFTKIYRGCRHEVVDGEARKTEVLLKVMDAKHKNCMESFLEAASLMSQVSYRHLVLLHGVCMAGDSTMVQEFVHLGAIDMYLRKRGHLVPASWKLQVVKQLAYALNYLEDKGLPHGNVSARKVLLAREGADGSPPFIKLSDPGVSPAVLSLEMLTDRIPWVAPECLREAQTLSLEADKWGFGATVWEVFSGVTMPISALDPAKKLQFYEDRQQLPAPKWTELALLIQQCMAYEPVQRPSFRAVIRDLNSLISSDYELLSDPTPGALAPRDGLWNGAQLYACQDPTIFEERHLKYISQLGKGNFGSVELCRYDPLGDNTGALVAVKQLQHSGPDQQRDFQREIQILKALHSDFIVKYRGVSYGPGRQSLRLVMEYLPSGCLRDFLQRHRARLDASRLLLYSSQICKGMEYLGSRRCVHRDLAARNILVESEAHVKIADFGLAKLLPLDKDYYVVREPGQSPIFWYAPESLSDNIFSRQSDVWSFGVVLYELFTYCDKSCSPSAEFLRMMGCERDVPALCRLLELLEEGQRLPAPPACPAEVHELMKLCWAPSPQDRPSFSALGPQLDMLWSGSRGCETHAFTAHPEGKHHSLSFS

[4] = target: Insulin-like growth factor 1 receptor (Homo sapiens, UniProt P08069); assay: Inhibitory activity against IGFR
[5] = target: Mitogen-activated protein kinase 8 (Homo sapiens, UniProt P45983); assay: Inhibitory activity against JNK1alpha
SW-620 [6] = assay: Antiproliferative activity against human colorectal carcinoma SW620 cells
[7] = Distribution coefficient of the compound, log D at pH 7.4; type: physicochemical; details: octanol/water
[8] = Half life in rat; type: ADME, organism-based; details: in vivo
Focal adhesion kinase 1 = Focal adhesion kinase 1 (Homo sapiens, UniProt Q05397); assay: Inhibitory activity against FAK
[9] = Free drug level in rat serum albumin; type: ADME, organism-based
[10] = Solubility in phosphate buffer at pH 7.4, 25 degC; type: physicochemical
[11] = target: Tyrosine-protein kinase CSK (Homo sapiens, UniProt P41240); assay: Inhibitory activity against CSK
[12] = Clearance in rat; type: ADME, organism-based; details: in vivo
[13] = target: Vascular endothelial growth factor receptor 2 (Homo sapiens, UniProt P35968); assay: Inhibitory activity against KDR
[14] = target: cAMP-dependent protein kinase (PKA) (Homo sapiens, UniProt P22694+P17612+P22612); assay: Inhibitory activity against PKA; type: protein assay
[15] = target: Mitogen-activated protein kinase 14 (Homo sapiens, UniProt Q16539); assay: Inhibitory activity against p38-alpha MAPK
[16] = target: Proto-oncogene tyrosine-protein kinase Src (Homo sapiens, UniProt P12931); assay: Inhibitory activity against SRC
[17] = Volume of distribution in rat; type: ADME, organism-based; details: in vivo, read-out: Vdss
[18] = target: Cyclin-dependent kinase 2 (Homo sapiens, UniProt P24941); assay: Inhibitory activity against CDK2
[19] = target: Fibroblast growth factor receptor (Homo sapiens, UniProt P22607+P11362+P22455+P21802); assay: Inhibitory activity against FGFR; type: protein assay
Mus musculus = species: Mus musculus; assay: Conversion to parent, N-(3-fluorophenyl)-2-{2-[(7-{3 -[4-(hydroxymethyl)piperidin-1 -yl]propoxy}-6-methoxyquinazol in-4-yl)amino]-1,3-thiazol-5-y l}acetamide in mouse plasma; type: ADME, organism-based; details: in vivo
[20] = Solubility in Tris buffer at pH 9.0, 25 degC; type: physicochemical
Aurora kinase B = Aurora kinase B (Homo sapiens, UniProt Q96GD4); assay: Inhibition of Aurora-B immunoprecipitated from mitotic cells; type: functional
Aurora kinase B, sequence (Q96GD4 whole entry): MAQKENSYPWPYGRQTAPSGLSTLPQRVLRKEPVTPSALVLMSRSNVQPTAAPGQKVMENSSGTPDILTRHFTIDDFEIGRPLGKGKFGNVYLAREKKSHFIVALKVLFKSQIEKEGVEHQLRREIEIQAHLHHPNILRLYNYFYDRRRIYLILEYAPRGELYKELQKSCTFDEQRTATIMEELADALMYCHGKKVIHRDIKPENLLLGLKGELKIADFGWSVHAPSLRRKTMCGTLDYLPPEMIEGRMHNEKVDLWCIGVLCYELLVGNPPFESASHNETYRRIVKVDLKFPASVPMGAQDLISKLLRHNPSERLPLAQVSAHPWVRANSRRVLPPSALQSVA

Proto-oncogene tyrosine-protein kinase Src, sequence (P12931 2-536 limits assumed): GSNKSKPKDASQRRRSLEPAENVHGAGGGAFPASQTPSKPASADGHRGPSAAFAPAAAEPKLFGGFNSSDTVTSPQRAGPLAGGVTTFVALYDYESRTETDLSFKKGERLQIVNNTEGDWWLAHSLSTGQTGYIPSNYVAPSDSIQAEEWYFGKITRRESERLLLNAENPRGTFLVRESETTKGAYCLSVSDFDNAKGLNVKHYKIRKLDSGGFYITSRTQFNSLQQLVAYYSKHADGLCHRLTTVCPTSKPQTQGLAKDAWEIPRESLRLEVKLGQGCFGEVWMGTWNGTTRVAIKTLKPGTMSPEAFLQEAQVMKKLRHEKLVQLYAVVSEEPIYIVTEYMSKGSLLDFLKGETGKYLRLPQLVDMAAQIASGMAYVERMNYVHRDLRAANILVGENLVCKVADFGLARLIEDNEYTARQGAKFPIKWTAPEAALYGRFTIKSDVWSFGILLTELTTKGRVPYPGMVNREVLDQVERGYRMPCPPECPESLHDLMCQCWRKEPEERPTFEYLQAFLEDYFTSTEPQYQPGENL
Mitogen-activated protein kinase 14, sequence (Q16539 whole entry): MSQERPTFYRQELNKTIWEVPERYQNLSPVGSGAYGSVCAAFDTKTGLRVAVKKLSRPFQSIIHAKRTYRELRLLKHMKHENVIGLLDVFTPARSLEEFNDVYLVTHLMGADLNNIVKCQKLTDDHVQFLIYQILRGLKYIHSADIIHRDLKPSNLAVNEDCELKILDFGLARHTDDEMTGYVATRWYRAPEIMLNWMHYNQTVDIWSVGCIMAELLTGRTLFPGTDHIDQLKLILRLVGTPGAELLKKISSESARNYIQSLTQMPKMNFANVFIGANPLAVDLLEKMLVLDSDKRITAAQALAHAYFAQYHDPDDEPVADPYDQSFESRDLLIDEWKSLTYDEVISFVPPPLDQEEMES
Vascular endothelial growth factor receptor 2, sequence (P35968 whole entry): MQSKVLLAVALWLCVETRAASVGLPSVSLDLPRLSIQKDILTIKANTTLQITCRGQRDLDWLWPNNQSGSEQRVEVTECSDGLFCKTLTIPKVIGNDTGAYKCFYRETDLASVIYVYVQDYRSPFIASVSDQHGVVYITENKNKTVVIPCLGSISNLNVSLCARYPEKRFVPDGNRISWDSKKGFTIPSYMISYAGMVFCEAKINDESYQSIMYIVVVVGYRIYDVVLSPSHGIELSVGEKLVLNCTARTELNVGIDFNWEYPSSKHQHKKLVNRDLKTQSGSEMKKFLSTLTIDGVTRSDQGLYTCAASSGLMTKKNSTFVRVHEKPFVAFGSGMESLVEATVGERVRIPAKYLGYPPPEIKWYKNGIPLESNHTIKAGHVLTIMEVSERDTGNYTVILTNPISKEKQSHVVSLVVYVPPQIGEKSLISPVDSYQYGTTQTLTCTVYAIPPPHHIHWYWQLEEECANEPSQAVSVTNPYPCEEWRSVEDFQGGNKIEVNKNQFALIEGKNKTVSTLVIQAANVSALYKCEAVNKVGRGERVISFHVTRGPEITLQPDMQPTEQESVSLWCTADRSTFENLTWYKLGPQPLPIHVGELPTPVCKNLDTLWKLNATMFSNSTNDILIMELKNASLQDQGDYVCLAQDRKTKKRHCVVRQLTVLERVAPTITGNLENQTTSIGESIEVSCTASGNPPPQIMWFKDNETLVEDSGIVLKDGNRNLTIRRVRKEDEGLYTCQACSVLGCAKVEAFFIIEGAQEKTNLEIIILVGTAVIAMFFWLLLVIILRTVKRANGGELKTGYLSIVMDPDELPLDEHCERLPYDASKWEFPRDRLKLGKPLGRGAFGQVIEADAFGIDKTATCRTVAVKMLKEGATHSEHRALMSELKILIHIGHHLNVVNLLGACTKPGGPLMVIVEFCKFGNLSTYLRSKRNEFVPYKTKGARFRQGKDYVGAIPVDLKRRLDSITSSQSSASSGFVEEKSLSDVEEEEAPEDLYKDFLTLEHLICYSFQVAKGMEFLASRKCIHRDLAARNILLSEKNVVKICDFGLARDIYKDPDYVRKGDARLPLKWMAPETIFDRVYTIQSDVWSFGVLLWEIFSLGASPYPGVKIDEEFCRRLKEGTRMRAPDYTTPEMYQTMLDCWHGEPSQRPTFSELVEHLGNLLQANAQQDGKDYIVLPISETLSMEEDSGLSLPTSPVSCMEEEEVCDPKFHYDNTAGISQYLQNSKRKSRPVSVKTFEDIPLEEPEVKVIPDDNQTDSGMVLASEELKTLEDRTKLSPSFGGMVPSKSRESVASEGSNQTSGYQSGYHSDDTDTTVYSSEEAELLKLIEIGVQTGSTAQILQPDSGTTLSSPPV
Insulin-like growth factor 1 receptor, sequence (P08069 31-736 limits assumed): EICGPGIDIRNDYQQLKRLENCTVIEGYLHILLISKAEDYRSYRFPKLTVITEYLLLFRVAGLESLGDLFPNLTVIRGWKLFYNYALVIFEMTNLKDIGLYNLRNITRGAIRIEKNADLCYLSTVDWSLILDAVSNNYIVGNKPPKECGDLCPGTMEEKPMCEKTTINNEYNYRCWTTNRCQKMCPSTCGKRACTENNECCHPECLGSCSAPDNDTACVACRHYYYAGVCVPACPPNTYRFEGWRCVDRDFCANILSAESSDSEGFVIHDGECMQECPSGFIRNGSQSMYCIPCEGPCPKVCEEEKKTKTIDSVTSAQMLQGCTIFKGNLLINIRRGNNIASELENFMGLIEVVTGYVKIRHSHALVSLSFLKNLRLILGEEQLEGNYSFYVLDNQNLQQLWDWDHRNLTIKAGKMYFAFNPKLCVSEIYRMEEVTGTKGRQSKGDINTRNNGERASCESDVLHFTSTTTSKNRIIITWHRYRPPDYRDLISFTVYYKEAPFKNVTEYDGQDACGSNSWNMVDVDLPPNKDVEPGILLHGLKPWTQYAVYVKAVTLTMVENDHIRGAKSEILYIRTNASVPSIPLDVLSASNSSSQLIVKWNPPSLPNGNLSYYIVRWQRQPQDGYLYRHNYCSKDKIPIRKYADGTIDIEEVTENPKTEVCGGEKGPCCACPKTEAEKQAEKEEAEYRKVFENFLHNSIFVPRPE
Insulin-like growth factor 1 receptor, sequence (P08069 741-1367 limits assumed): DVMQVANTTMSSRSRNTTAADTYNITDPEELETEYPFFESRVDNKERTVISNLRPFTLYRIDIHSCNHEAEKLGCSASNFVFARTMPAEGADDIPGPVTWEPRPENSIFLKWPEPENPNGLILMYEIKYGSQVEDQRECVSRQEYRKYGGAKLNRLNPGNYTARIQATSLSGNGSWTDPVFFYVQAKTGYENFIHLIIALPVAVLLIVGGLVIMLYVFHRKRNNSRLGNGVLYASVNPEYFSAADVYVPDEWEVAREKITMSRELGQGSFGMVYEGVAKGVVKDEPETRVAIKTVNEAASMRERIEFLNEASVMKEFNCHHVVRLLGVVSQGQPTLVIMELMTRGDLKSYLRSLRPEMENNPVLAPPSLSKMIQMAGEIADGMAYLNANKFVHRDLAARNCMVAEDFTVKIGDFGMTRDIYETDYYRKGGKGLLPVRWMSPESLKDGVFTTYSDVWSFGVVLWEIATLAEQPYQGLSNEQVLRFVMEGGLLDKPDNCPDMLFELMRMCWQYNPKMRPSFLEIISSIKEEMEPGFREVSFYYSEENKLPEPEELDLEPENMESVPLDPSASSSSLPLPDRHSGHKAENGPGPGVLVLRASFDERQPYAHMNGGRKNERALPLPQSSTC
Focal adhesion kinase 1, sequence (Q05397 whole entry): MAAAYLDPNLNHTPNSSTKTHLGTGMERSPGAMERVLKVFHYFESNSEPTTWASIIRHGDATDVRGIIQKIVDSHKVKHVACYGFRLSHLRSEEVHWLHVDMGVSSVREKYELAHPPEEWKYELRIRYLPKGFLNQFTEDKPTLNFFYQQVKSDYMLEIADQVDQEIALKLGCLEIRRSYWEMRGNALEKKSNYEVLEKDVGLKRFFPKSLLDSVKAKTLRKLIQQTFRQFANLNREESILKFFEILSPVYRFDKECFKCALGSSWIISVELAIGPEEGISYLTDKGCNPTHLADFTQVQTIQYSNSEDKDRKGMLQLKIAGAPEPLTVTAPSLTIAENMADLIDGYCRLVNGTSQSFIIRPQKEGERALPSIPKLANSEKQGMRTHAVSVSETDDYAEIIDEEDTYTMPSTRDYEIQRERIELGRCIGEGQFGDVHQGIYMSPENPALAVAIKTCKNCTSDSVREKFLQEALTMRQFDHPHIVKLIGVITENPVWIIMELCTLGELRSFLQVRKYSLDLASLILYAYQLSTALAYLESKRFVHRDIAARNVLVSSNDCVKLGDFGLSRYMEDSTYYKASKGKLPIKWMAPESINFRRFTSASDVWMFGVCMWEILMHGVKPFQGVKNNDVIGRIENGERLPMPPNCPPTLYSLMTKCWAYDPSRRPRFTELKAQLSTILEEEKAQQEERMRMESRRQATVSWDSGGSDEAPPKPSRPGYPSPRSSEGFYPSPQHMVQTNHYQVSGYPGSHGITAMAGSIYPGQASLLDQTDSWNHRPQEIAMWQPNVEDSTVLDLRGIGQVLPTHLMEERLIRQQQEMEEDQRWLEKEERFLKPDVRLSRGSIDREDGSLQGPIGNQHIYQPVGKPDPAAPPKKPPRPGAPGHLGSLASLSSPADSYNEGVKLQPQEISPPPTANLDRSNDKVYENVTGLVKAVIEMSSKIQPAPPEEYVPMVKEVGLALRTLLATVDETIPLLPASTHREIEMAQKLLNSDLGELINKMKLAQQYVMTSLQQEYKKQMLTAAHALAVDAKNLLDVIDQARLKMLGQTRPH

| IC50 (SW-620 [1]) [nM] | IC50 (Aurora kinase A) [nM] | IC50 [2] [nM] | Compound | further results |
| --- | --- | --- | --- | --- |
| 1 | 2 |  | COc1cc2c(Nc3ncc(CC(=O)Nc4cccc(F)c4F)s3)ncnc2cc1OCCCN1CCC[C@H]1CO |  |
| 10 | 1 | 8 | COCCOc1cc2ncnc(Nc3ncc(CC(=O)Nc4cccc(F)c4)s3)c2cc1OC |  |
| 5 |  | 7 | COc1cc2c(Nc3ncc(CC(=O)Nc4cccc(F)c4)s3)ncnc2cc1OCCCN1CCC(CO)CC1 | IC50 [3]: 25000 nM; IC50 [4]: 13000 nM; IC50 [5]: > 100000 nM; IC50 (SW-620 [6]): 2 nM; logD [7]: 3.2; half-life [8]: 5 h; IC50 (Focal adhesion kinase 1): 4000 nM; fraction unbound [9]: 0.024; solubility [10]: 35 µg/mL (≈ 0.0603 mM); IC50 [11]: 21000 nM; clearance [12]: 16.6 mL/min/kg; IC50 [13]: 1000 nM; IC50 [14]: > 100000 nM; IC50 [15]: > 100000 nM; IC50 [16]: 3000 nM; Vd [17]: 1.8 L/kg; IC50 [18]: 62000 nM; IC50 [19]: 8000 nM |
| 1100 | 43 | 133 | COc1cc2c(Nc3ncc(C)s3)ncnc2cc1OCCCN1CCOCC1 |  |
| 400 | < 1 | < 1 | COc1cc2c(Nc3ncc(SCc4cccc(F)c4)s3)ncnc2cc1OCCCN1CCC(CO)CC1 |  |
| 2300 | 55 | 286 | CCN(C(=O)Cc1cnc(Nc2ncnc3cc(OCCCN4CCOCC4)c(OC)cc23)s1)c1ccccc1 |  |
| < 1 | < 1 | < 1 | CCN(CCO)CCCOc1cc2ncnc(Nc3ncc(CC(=O)Nc4cccc(F)c4)s3)c2cc1OC |  |
| > 10000 | > 1000 | > 1000 | COc1cc2c(Nc3nc(C(=O)Nc4ccc(F)cc4)c[nH]3)ncnc2cc1OCCCN1CCOCC1 |  |
| 200 |  | < 1 | COc1cc2c(Nc3ncc(Oc4cccc(F)c4)s3)ncnc2cc1OCCCN1CCC(CO)CC1 |  |
| 1000 | 472 | 341 | COc1cc2c(Nc3ncc(CC(=O)Nc4cccc(F)c4)o3)ncnc2cc1OCCCN1CCOCC1 |  |
| 19 | < 1 | < 1 | COc1cc2c(Nc3ncc(CC(=O)Nc4cccc(F)c4)s3)ncnc2cc1OCCN1CCC(CCO)CC1 |  |
| 600 | 483 | 48 | COc1cc2c(Nc3ncc(CC(=O)Nc4cccc(N(C)C)c4)s3)ncnc2cc1OCCCN1CCC[C@H]1CO |  |
| 20 | < 1 | < 1 | C#CCN(CCO)CCCOc1cc2ncnc(Nc3ncc(CC(=O)Nc4cccc(F)c4)s3)c2cc1OC |  |
| 200 | 578 | 12 | COc1cc2c(Nc3nc(CC(=O)Nc4cccc(F)c4)cs3)ncnc2cc1OCCCN1CCOCC1 |  |
| 400 | 158 | 5 | COc1cc2c(Nc3ncc(CC(=O)NCCC(C)C)s3)ncnc2cc1OCCCN1CCOCC1 |  |

The next lines start with the compound.

| Compound | IC50 (SW-620 [1]) [nM] | IC50 (Aurora kinase A) [nM] | IC50 [2] [nM] | further results |
| --- | --- | --- | --- | --- |
| COc1cc2c(Nc3ncc(CNC(=O)c4cccc(F)c4)s3)ncnc2cc1OCCCN1CCC(CO)CC1 | 2800 | 111 | 136 |  |
| CCCCc1cnc(Nc2ncnc3cc(OCCCN4CCOCC4)c(OC)cc23)s1 | 1900 | 6 | 63 |  |
| COc1cc2c(Nc3ncc(CC(=O)Nc4cccc(F)c4)s3)ncnc2cc1OCCCN1CCOCC1 | < 1 | < 1 | < 1 |  |
| COc1cc2c(Nc3ncc(C(=O)Nc4ccc(F)cc4)s3)ncnc2cc1OCCCN1CCOCC1 | 600 | 1 | 49 |  |
| COc1cc2c(Nc3ncc(CC(=O)Nc4cccc(F)c4)s3)ncnc2cc1OCCCN1CCC(COP(=O)(O)O)CC1 |  |  |  | T1/2 (Mus musculus): 0.7 h; solubility [20]: 10000 µg/mL (≈ 15.1 mM) |
| COc1cc2c(Nc3ncc(CC(=O)Nc4ccccc4C(N)=O)s3)ncnc2cc1OCCCN1CCC[C@H]1CO | > 10000 | 452 | 282 |  |
| COc1cc2c(Nc3ncc(CC(=O)Nc4cccc(F)c4)s3)ncnc2cc1OCCCNCCO | 80 |  | 1 |  |
| COc1cc2c(Nc3ncc(CC(=O)Nc4cccc(F)c4)s3)ncnc2cc1OCCCN1CCC[C@H]1CO | 4 | < 1 | < 1 |  |
| COc1cc2c(Nc3ncc(CC(=O)Nc4cccc(F)c4)s3)ncnc2cc1OCCCN1CCN(C)CC1 | 2 | < 1 | < 1 |  |
| COc1cc2c(Nc3ncc(CNS(=O)(=O)c4cccc(F)c4)s3)ncnc2cc1OCCCN1CCC(CO)CC1 | 800 | 12 | 28 |  |
| COc1cccc(NC(=O)Cc2cnc(Nc3ncnc4cc(OCCCN5CCC[C@H]5CO)c(OC)cc34)s2)c1 | 1000 | 106 | 5 |  |
| CCS(=O)(=O)Nc1ccc2c(c1)/C(=C(/Nc1ccc(CN3CCCCC3)cc1)c1ccccc1)C(=O)N2 [HESPERADIN] |  |  |  | IC50 (Aurora kinase B): 250 nM |
